Measured values from patent US20230331817A1 (The Regents of the University of California, priority 2020, published 2023).

Columns and labels:
[1] = test system: plasmin induced lysis of clot formed in whole blood; test: Thromboelastography, plasmin induced clot lysis in whole blood; type: biochemical, human; conditions: for G / LY30 / LY60 / MA: NHB + […] plasmin
Experimental: Plasmin and CaCl2) were added last to initiate simultaneous clotting and fibrinolysis. […] The thromboelastograph was calibrated each day and each inhibitor concentration was tested in duplicate. TEG Analytical Software (version 4.2.2; Haemonetics Corporation, Braintree, MA) was used to calculate the time to clot initiation (R), maximal clot strength (maximal amplitude (MA), which was directly related to the shear elastic modulus strength, G), and percent lysis 60 minutes after MA (LY60) (42).

HUVEC [2] = type: cell-based, human
Experimental: (§1) Resazurin reduction assay (Fisher Scientific) was used to evaluate the potential cytotoxicity of antifibrinolytic agents toward primary human endothelial cells and skin fibroblasts. Phosphate buffer that was used to dissolve the samples was included as negative control. The assay is based on reduction of the non-fluorescent dye resazurin, to the highly fluorescent resorufin by viable cells. […] Briefly, cells in 96-well cell culture plates were treated with different concentrations of antifibrinolytic compounds (as described above). After 24 hours resazurin reagent was added to each well and the plates were incubated at 37° C. for 4 hours. Fluorescence was measured by the FLUOstar Omega Microplate Reader (BMG Labtech) using an excitation wavelength of 544 nm and an emission wavelength of 590 nm. Each assay was done in duplicate, with three replicates each. The viability was evaluated based on comparison with untreated cells.

[3] = test system: primary human dermal skin fibroblasts; test: Resazurin reduction (alamarBlue) viability assay, skin fibroblasts; type: cell-based
Experimental: as §1

HUVEC [4] = conditions: 24 hours; 30 μM KD1TM, 30 μM BPTI, 60 mM EACA, 30 mM TXA
Excerpt: (§2) Primary human pooled umbilical vein endothelial cells (HUVEC) were obtained from ATCC. The cells were maintained in Vascular Cell Basal Medium (ATCC), supplemented with the Endothelial Cell Growth Kit-BBE (ATCC) and Penicillin-Streptomycin-Amphotericin B (ATCC). Primary human dermal skin fibroblasts were obtained from LONZA and maintained in Fibroblast Basal Medium (FBMTM, LONZA), supplemented with a cocktail of growth factors, fetal bovine serum and antibiotics (FGMTM-2 SingleQuots™, LONZA). All cells were maintained in a humidified 5% C02 atmosphere at 37° C. and were passaged once they reached 80% confluence. All experiments were performed with cells in the logarithmic growth phase.
(§3) For toxicity studies, cells were seeded into 96-well or 24-well cell culture plates at 3,500 cells/cm2 and were used for experiments once they reached 80% confluence.
(§4) Cell toxicity and cell death was evaluated with the CellTox™ Green Cytotoxicity Assay (Promega). This assay measures changes in membrane integrity that occur as a result of cell death. The dye used in the system is excluded from viable cells but binds to DNA in compromised cells, which results in a fluorescent signal. We measured cell death in HUVEC and primary fibroblasts treated with antifibrinolytic agents at 4 concentrations (as indicated above) with triplicates per concentration in 24-well plates after 24 hours of exposure. Hoechst (Thermo Fisher Scientific) was used to stain all nuclei. Images of cells were captured using an inverted microscope (Nicon; Edipse T2000 TE). Green fluorescent cells (FITC filter) and Hoechst stained cells (DAPI filter) were counted using Image J software.

[5] = test system: primary human dermal skin fibroblasts; conditions: 24 hours; 30 μM KD1TM, 30 μM BPTI, 60 mM EACA, 30 mM TXA
Excerpt: as §2, §3, §4

[6] = human, in vivo; cited from earlier work

Question: For `NCCCCCC(=O)O` [EACA, ε-aminocaproic acid], which G [1] is on record?
Answer: Its G is 2388.0 ± 49.6 dyn/cm^2.

Question: And the G ([1]; inhibitor 200 μM)?
Answer: Its G is 153.25 ± 9.8 dyn/cm^2.

Question: And the LY30 ([1]; inhibitor 200 μM)?
Answer: Its LY30 is 0%.

Question: What about the LY60 ([1]; inhibitor 200 μM) of the same compound?
Answer: Its LY60 is 0%.

Question: What about the MA ([1]; inhibitor 200 μM) of the same compound?
Answer: Its MA is 3.20 ± 0.71 mm.

Question: And the G ([1]; inhibitor 500 μM)?
Answer: Its G is 747.75 ± 14.8 dyn/cm^2.

Question: What about the LY30 ([1]; inhibitor 500 μM) of the same compound?
Answer: The LY30 was 0%.

Question: What about the LY60 ([1]; inhibitor 500 μM) of the same compound?
Answer: The LY60 was 0%.

Question: And the MA ([1]; inhibitor 500 μM)?
Answer: The MA was 13.15 ± 0.64 mm.

Question: What about the G ([1]; inhibitor 1000 μM) of the same compound?
Answer: Its G is 1070.1 ± 35.0 dyn/cm^2.

Question: What about the LY30 ([1]; inhibitor 1000 μM) of the same compound?
Answer: Its LY30 is 0%.

Question: What about the LY60 ([1]; inhibitor 1000 μM) of the same compound?
Answer: Its LY60 is 16.8 ± 0.35%.

Question: And the MA ([1]; inhibitor 1000 μM)?
Answer: Its MA is 16.40 ± 0.28 mm.

Question: What about the LY30 ([1]; inhibitor 3000 μM) of the same compound?
Answer: The LY30 was 0%.

Question: What about the LY60 ([1]; inhibitor 3000 μM) of the same compound?
Answer: Its LY60 is 0.6 ± 0.04%.

Question: And the MA ([1]; inhibitor 3000 μM)?
Answer: The MA was 32.60 ± 0.71 mm.

Question: And the “G restored, relative to blood without plasmin” value ([1]; […] plasmin, 3 mM EACA)?
Answer: Its value is roughly 50%.

Question: What about the “MA restored, relative to blood without plasmin” value ([1]; […] plasmin, 3 mM EACA) of the same compound?
Answer: Its value is roughly 67%.

Question: And the “HUVEC viability (FIG. 4)” value (HUVEC [2])?
Answer: Its value is “not significantly different from the untreated cells”.

Question: What about the “Fibroblast cell viability (FIG. 5)” value [3] of the same compound?
Answer: Its value is “not significantly different from the untreated cells”.

Question: What about the “HUVEC cytotoxicity, CellTox green (FIG. 7)” value (HUVEC [4]) of the same compound?
Answer: The value was “only observed in skin fibroblasts”.

Question: And the “Fibroblasts cytotoxicity, CellTox green (FIG. 8)” value [5]?
Answer: The value was “significant toxicity”.

Question: Which half-life [6] does the source give for Ecallantide here?
Answer: Its half-life is roughly 2 h.
